Source: ChEMBL document CHEMBL4831538, “Repositioning of the Anthelmintic Drugs Bithionol and Triclabendazole as Transthyretin Amyloidogenesis Inhibitors” (J Med Chem, 2021)
Calls of active or inactive are those of the source. The calls are words filed in the database; no cut-off is given here.

Assays:
Transthyretin [1] = target: T1, Transthyretin (Homo sapiens, UniProt P02766, V50M); assay: Binding affinity to TTR V30M mutant (unknown origin) expressed in Escherichia coli incubated for 60 mins by tryptophan intrinsic fluorescence method; settings: read-out: Kd(app)
[2] = test system: Transthyretin (Homo sapiens), P02766 [V50M]; assay: (§1) Stabilization of TTR V30M mutant (unknown origin) assessed as acid-mediated protein aggregation inhibition ratio incubated for 1 week by absorbance method; settings: time 1.0 weeks
[3] = test system: Transthyretin (Homo sapiens), P02766 [V50M]; assay: Stabilization of TTR V30M mutant (unknown origin) assessed as suppression of TTR tetramer dissociation at 1 to 10 uM incubated for 9 days by glutaraldehyde cross-linking assay based SDS-PAGE analysis; settings: dose 1-10 µM, time 9.0 day
[4] = test system: Transthyretin (Homo sapiens), P02766 [V50M]; assay: Stabilization of TTR V30M mutant (unknown origin) assessed as suppression of TTR tetramer dissociation at 3 uM incubated for 9 days by glutaraldehyde cross-linking assay based SDS-PAGE analysis relative to control; settings: time 9.0 day
[5] = test system: Transthyretin (Homo sapiens), P02766 [V142I]; assay: Stabilization of TTR V142I mutant (unknown origin) expressed in Escherichia coli assessed as reduction in trypsin-induced aggregation incubated for 3 to 4 days by absorbance method; settings: time 3-4 day
Transthyretin [6] = target: T2, Transthyretin (Homo sapiens, UniProt P02766); assay: Stabilization of wild type TTR (unknown origin) expressed in Escherichia coli assessed as reduction in methanol-induced aggregation at 50 uM incubated for 60 min by absorbance method
Transthyretin [7] = target: T1, Transthyretin; assay: as §1
Transthyretin [8] = target: T2, Transthyretin; assay: Stabilization of wild type TTR (unknown origin) expressed in Escherichia coli assessed as reduction in methanol-induced aggregation incubated for 60 min by absorbance method
Transthyretin [9] = target: T1, Transthyretin; assay: Binding affinity to TTR V30M mutant (unknown origin) by isothermal titration calorimetry

SMILES | Kd (Transthyretin [1]) | Activity [2] | Activity [3] | Activity [4] | Activity [5] | Activity (Transthyretin [6]) | IC50 (Transthyretin [7]) | IC50 (Transthyretin [8]) | Kd (Transthyretin [9])
CC(C)=COc1ccc(/C=C/C(O)c2ccc(OC=C(C)C)cc2OCC(=O)O)cc1 (stereo not drawn) | 6.5 µM |  |  |  |  |  |  |  | 
Cc1ccc(C(=O)c2cc(O)c(O)c([N+](=O)[O-])c2)cc1 |  | Dose-Dependent Effect | Active | 100% | Dose-Dependent Effect |  |  |  | 
O=C(O)c1cc(-c2ccc(F)cc2F)ccc1O |  | Dose-Dependent Effect | Active |  |  |  |  |  | 
O=C(O)c1ccc2nc(-c3cc(Cl)cc(Cl)c3)oc2c1 |  | Dose-Dependent Effect | Active | 100% | Dose-Dependent Effect | Active |  |  | 
Oc1ccc(Cl)cc1Cc1cc(Cl)ccc1O |  |  | Active |  |  |  |  |  | 
CC(C)c1ccc2oc3nc(N)c(C(=O)O)cc3c(=O)c2c1 [AMLEXANOX] | 20 µM |  |  |  |  |  |  |  | 
Oc1c(Cl)cc(Cl)cc1Sc1cc(Cl)cc(Cl)c1O [BITHIONOL] | 1.1 µM | Dose-Dependent Effect | Active | 100% | Dose-Dependent Effect |  | 2.4 µM | 3 µM | 0.062 µM
CSc1nc2cc(Cl)c(Oc3cccc(Cl)c3Cl)cc2[nH]1 [TRICLABENDAZOLE] |  | Dose-Dependent Effect | Active | 100% | Dose-Dependent Effect | Active | 3.5 µM |  | 
